Assay results: US11274090B2, “P300/CBP HAT inhibitors” (Constellation Pharmaceuticals, Inc., priority 2018, dated 2022)

biological target: p300 HAT domain (residues 1287-1666) (Homo sapiens (Human), UniProt Q09472); experiment: p300 HAT SPA assay (scintillation proximity assay, acetylation of biotinylated H3(1-21) peptide); format: biochemical; conditions: average of at least 2 replicate titrations
Summary of the method: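 Purified p300 HAT domain reaction transferred to streptavidin plates to capture biotinylated H3(1-21) peptide, incubated 1.5 hr at RT, and read by scintillation proximity. IC50 values derived from concentration-response data.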

p300 HAT domain (residues 1287-1666), sequence (Q09472 1287-1666): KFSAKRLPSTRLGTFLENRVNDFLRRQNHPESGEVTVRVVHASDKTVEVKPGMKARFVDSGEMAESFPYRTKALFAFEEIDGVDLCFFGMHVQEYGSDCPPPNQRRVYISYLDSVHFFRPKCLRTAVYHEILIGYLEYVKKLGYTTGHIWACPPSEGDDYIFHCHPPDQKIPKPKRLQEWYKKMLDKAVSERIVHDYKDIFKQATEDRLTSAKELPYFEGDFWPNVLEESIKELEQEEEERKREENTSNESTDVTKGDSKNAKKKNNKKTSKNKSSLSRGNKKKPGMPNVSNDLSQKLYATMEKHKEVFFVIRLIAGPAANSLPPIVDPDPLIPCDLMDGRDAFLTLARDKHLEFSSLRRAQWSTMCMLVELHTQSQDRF

| Compound | IC50 [nM] |
| --- | --- |
| Cc1ccc(-c2ccc(NC(=O)C(NCC(C)c3ccc(C#N)cc3)c3ccccc3)nc2)nn1 (single isomer, unassigned) [15 Isomer 1] | > 2000 |
| C[C@H](CNC(C(=O)Nc1ccc(-c2cnn(CC(=O)N(C)C)c2)cn1)c1ccccc1)c1ccc(C#N)cc1 (single isomer, unassigned) [84 Isomer 1] | 395 |
| Cn1cc(-c2ccc(NC(=O)C(NCCc3ccc(C#N)cc3)c3cccc(Cl)c3)nc2)cn1 (single isomer, unassigned) [79 Isomer 2] | 97.7 |
| Cn1cc(-c2ccc(NC(=O)C(NCCc3ccc(C#N)cc3)c3ccccc3Cl)nc2)cn1 (single isomer, unassigned) [88 Isomer 1] | 65.4 |
| COC1CCN(c2ccc(NC(=O)C(NCCc3ccc(C#N)cc3)c3ccccc3)nc2)CC1 (single isomer, unassigned) [66 Isomer 1] | 144 |
| C[C@H](CNC(C(=O)Nc1ccc(-c2cnn(C)c(=O)c2)cn1)c1ccccc1)c1ccc(C#N)cc1 (single isomer, unassigned) [139 Isomer 2] | > 2000 |
| CCN1CCN(c2ccc(NC(=O)C(NCCc3ccc(C#N)cc3)c3ccccc3)nc2)C1=O (single isomer, unassigned) [76 Isomer 1] | 88 |
| Cc1noc(C)c1-c1ccc(NC(=O)C(NC[C@@H](C)c2ccc(C#N)cc2)c2ccccc2)nc1 (single isomer, unassigned) [131 Isomer 2] | 38 |
| CO[C@@H]1CCN(c2ccc(NC(=O)C(NCC(C)c3ccc(C#N)cc3)c3ccccc3)nc2)C1 (single isomer, unassigned) [92 Isomer 3] | 599 |
| Cn1cc(-c2ncc(NC(=O)C(NCCc3ccc(C#N)cc3)c3ccccc3)cn2)cn1 (single isomer, unassigned) [23 Isomer 2] | > 5000 |
| CC(CNC(C(=O)Nc1ccc(N2CCN(C)C(=O)C2)cn1)c1ccccc1)c1ccc(C#N)cc1 (single isomer, unassigned) [101 Isomer 4] | > 2000 |
| N#Cc1ccc(CCNC(C(=O)Nc2ccn(-c3ccccc3)n2)c2ccccc2)cc1 (single isomer, unassigned) [50 Isomer 1] | 279 |
| C[C@H](CNC(C(=O)Nc1ccc(-c2cnn(CC(N)=O)c2)cn1)c1ccccc1)c1ccc(C#N)cc1 (single isomer, unassigned) [147 Isomer 2] | 6.16 |
| CC(CNC(C(=O)Nc1ccc(-c2cnn(C3CCC3)c2)cn1)c1ccccc1)c1ccc(C#N)cc1 (single isomer, unassigned) [52 Isomer 4] | > 2000 |
| Cc1ncc(C(C)CNC(C(=O)Nc2ccc(-c3cnn(C)c3)cn2)c2ccccc2)cn1 (single isomer, unassigned) [150 Isomer 2] | > 2000 |
| Cc1cnc(-c2ccc(NC(=O)C(NCCc3ccc(C#N)cc3)c3ccccc3)cc2)[nH]1 (single isomer, unassigned) [11 Isomer 1] | 279 |
| CC(CNC(C(=O)Nc1ccc(N2CCN(CC(F)(F)F)C(=O)C2)cn1)c1ccccc1)c1ccc(C#N)cc1 (single isomer, unassigned) [103 Isomer 2] | 14.3 |
| Cc1ncn(-c2ccc(NC(=O)C(NCCc3ccc(C#N)cc3)c3ccccc3)nc2)n1 (single isomer, unassigned) [73 Isomer 1] | > 2000 |
| Cn1cc(-c2ccc(NC(=O)C(NCCc3ccc(C#N)cc3)C3CCCCC3)nc2)cn1 (single isomer, unassigned) [89 Isomer 2] | 1430 |

| Compound | IC50 [nM] |
| --- | --- |
| CC(CNC(C(=O)Nc1ccc(N2CCN(C)S2(=O)=O)cn1)c1ccccc1)c1ccc(C#N)cc1 (single isomer, unassigned) [108 Isomer 1] | > 2000 |
| CC(CNC(C(=O)Nc1ccc(-c2cnn(C)n2)cn1)c1ccccc1)c1ccc(C#N)cc1 (single isomer, unassigned) [98 Isomer 3] | > 2000 |
| CCN(CC)C(=O)C1CCN(c2ccc(NC(=O)C(NCCc3ccc(C#N)cc3)c3ccccc3)nc2)CC1 (single isomer, unassigned) [64 Isomer 1] | > 2000 |
| Cn1cc(-c2ccc(NC(=O)C(NCCc3ccc(C#N)c(F)c3)c3ccccc3)nc2)cn1 (single isomer, unassigned) [85 Isomer 2] | 470 |
| CC(CNC(C(=O)Nc1ccc(-c2cnn(C3CCC3)c2)cn1)c1ccccc1)c1ccc(C#N)cc1 (single isomer, unassigned) [52 Isomer 1] | 612 |
| (R, S)- and (S, S)-2-((2- (4- cyanophenyl)propyl)ami- no)-N-(5-(1,3-dimethyl- 1H-pyrazol-4-yl)pyridin- 2-yl)-2-phenylacetamide [113 Isomer 1] | 1800 |
| N#Cc1ccc(CCNC(C(=O)Nc2ccn(C3CCOCC3)n2)c2ccccc2)cc1 (single isomer, unassigned) [30 Isomer 2] | > 5000 |
| Cn1cc(-c2ccc(NC(=O)C(NCC(c3ccc(C#N)cc3)C(F)(F)F)c3ccccc3)nc2)cn1 (single isomer, unassigned) [149 Isomer 1] | > 2000 |
| CC1CN(C)C(=O)CN1c1ccc(NC(=O)C(NC[C@@H](C)c2ccc(C#N)cc2)c2ccccc2)nc1 (single isomer, unassigned) [125 Isomer 4] | 19.6 |
| Cn1cc(-c2ccc3c(c2)CCCN3C(=O)[C@@H](NCCc2ccc(C#N)cc2)c2ccccc2)cn1 (single isomer, unassigned) [151 Isomer 2] | > 5000 |
| Cn1cc(-c2ccc(NC(=O)C(NCCc3ccc(C#N)cc3)c3cccc(Cl)c3)nc2)cn1 (single isomer, unassigned) [79 Isomer 1] | > 2000 |
| Cc1nc(NC(=O)C(NCC(C)c2ccc(C#N)cc2)c2ccccc2)ccc1-c1cnn(C)c1 (single isomer, unassigned) [39 Isomer 1] | > 2000 |
| N#Cc1ccc(CCNC(C(=O)Nc2ccc(N3CCC(F)(F)C3)cn2)c2ccccc2)cc1 (single isomer, unassigned) [77 Isomer 1] | 39.4 |
| CC(CNC(C(=O)Nc1ccc(N2CCN(C)C(=O)C2)cn1)c1cnn(C)c1)c1ccc(C#N)cc1 (single isomer, unassigned) [136 Isomer 2] | > 2000 |
| CC(CNC(C(=O)Nc1ccc(-c2cnn(C(C)(C)CO)c2)cn1)c1ccccc1)c1ccc(C#N)cc1 (single isomer, unassigned) [8 Isomer 2] | 1350 |
| CC(CNC(C(=O)Nc1ccc(-c2cnn(C(F)F)c2)cn1)c1cnn(C)c1)c1ccc(C#N)cc1 (single isomer, unassigned) [128 Isomer 3] | > 2000 |
| Cn1cc(-c2ccc(NC(=O)C(NCC(c3ccc(C#N)cc3)C(F)(F)F)c3ccccc3)nc2)cn1 (single isomer, unassigned) [149 Isomer 3] | 647 |
| COC1CN(c2ccc(NC(=O)C(NCC(C)c3ccc(C#N)cc3)c3ccccc3)nc2)C1 (single isomer, unassigned) [32 Isomer 1] | > 2000 |
| C[C@H](CNC(C(=O)Nc1ccc(-c2cc(=O)n(C)cn2)cn1)c1ccccc1)c1ccc(C#N)cc1 (single isomer, unassigned) [106 Isomer 2] | 25.5 |

| Compound | IC50 [nM] |
| --- | --- |
| COc1cc(-c2cnn(C)c2)ccc1NC(=O)C(NCCc1ccc(C#N)cc1)c1ccccc1 (single isomer, unassigned) [24 Isomer 2] | 607 |
| CN1CCN(c2ccc(NC(=O)C(NCCc3ccc(C#N)cc3)c3ccccc3)nc2)CCC1=O (single isomer, unassigned) [71 Isomer 2] | > 2000 |
| Cn1cc(-c2ccc(NC(=O)C(NCCc3ccc(C#N)cc3)c3ccc(C(F)(F)F)cc3)nc2)cn1 (single isomer, unassigned) [120 Isomer 2] | > 2000 |
| Cn1cc(-c2ccc(NC(=O)C(NCCc3ccc(C#N)cc3Cl)c3ccccc3)nc2)cn1 (single isomer, unassigned) [51 Isomer 2] | 237 |
| Cn1cc(-c2ccc(NC(=O)C(NCCc3ccc(C#N)cc3)c3ccc(Cl)cc3)nc2)cn1 (single isomer, unassigned) [67 Isomer 1] | > 2000 |
| CC(CNC(C(=O)Nc1ccc(-c2cn[nH]c2)cn1)c1ccccc1)c1ccc(C#N)cc1 (single isomer, unassigned) [104 Isomer 3] | 415 |
| C[C@H](CNC(C(=O)Nc1ccc(-c2cnn(C)c2)cn1)c1cncc(F)c1)c1ccc(C#N)cc1 (single isomer, unassigned) [129 Isomer 2] | 20.2 |
| CC(CNC(C(=O)Nc1ccc(-c2cnn(C3CCC3)c2)cn1)c1ccccc1)c1ccc(C#N)cc1 (single isomer, unassigned) [52 Isomer 2] | > 2000 |
| Cn1cc(-c2ccc(NC(=O)C(NCCc3ccc(C#N)cc3F)c3ccccc3)nc2)cn1 (single isomer, unassigned) [29 Isomer 1] | 22.9 |
| CC(Cc1ccc(Cl)cc1)NC(C(=O)Nc1ccc(-c2cnn(C)c2)cc1)c1ccccc1 (single isomer, unassigned) [3 Isomer 1] | 196 |
| Cn1cc(-c2ccc(NC(=O)C(NCCc3ccc(C#N)cc3F)c3ccccc3)nc2)cn1 (single isomer, unassigned) [29 Isomer 2] | 2760 |
| N#Cc1ccc(CCNC(C(=O)Nc2ccc(C3CCC3)cn2)c2ccccc2)cc1 (single isomer, unassigned) [46 Isomer 2] | 486 |
| N#Cc1ccc(CCNC(C(=O)Nc2ccc(N3CCN(CC(F)(F)F)CC3)cn2)c2ccccc2)cc1 (single isomer, unassigned) [40 Isomer 1] | 190 |
| COc1ccc(C(NCCc2ccc(C#N)cc2)C(=O)Nc2ccc(-c3cnn(C)c3)cn2)cc1 (single isomer, unassigned) [63 Isomer 2] | > 2000 |
| CC(CNC(C(=O)Nc1ccc(-c2cnn(C)c2)cn1)c1cnn(C)c1)c1ccc(C#N)cc1 (single isomer, unassigned) [127 Isomer 1] | > 2000 |
| C[C@H](CNC(C(=O)Nc1ccc(-c2ccn(C)c(=O)c2)cn1)c1ccccc1)c1ccc(C#N)cc1 (single isomer, unassigned) [105 Isomer 1] | > 2000 |
| Cn1cc(-c2ccc(NC(=O)C(NCC(c3ccc(C#N)cc3)C(F)(F)F)c3ccccc3)nc2)cn1 (single isomer, unassigned) [149 Isomer 4] | > 2000 |
| CN1CCN(c2ccc(NC(=O)C(NCCc3ccc(C#N)cc3)c3ccccc3)nc2)CC1 (single isomer, unassigned) [49 Isomer 2] | > 5000 |
